From paper PMC5556379 (Journal of medicinal chemistry, 2017)

Tests used:
hiCE = molecular target: T1, hiCE (Homo sapiens, UniProt O00748); format: cell-based; conditions: U373MG cells expressing hiCE; irinotecan as substrate
T1 sequence (O00748 27-559): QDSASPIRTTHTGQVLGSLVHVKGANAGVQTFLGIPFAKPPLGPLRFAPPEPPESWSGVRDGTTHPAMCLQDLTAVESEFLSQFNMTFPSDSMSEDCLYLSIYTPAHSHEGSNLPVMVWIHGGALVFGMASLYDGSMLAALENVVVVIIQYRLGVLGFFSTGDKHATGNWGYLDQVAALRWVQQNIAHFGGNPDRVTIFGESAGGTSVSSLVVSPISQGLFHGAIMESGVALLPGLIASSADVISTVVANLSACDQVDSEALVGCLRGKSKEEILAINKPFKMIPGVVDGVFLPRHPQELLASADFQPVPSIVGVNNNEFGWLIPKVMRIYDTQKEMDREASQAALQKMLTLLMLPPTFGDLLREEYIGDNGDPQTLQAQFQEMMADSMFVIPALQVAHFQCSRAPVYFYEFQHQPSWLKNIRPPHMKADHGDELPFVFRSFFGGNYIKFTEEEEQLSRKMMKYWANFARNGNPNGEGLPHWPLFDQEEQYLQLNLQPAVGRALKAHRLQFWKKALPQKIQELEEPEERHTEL

hCE1 = molecular target: T2, hCE1 (Homo sapiens, UniProt P23141); conditions: read-out: Ki with hCE1; cited from earlier work
T2 sequence (P23141 18-567): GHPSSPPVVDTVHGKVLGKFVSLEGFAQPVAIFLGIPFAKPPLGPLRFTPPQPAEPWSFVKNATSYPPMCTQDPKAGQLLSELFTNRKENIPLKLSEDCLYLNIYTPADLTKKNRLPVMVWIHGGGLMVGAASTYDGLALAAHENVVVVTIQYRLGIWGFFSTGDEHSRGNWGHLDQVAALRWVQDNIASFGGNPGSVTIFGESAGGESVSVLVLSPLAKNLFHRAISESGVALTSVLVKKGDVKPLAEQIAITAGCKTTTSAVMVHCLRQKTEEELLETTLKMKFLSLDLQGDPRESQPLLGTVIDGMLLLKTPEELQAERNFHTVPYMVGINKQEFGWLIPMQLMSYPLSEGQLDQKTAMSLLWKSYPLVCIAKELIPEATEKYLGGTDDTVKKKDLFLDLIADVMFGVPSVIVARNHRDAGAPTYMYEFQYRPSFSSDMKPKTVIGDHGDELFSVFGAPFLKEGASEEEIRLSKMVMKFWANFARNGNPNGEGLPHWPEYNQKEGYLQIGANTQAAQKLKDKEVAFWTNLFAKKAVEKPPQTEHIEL

Compound	inhibition of hiCE in cells (loss in 7-ethyl-10-hydroxycamptothecin production) (hiCE)	Ki (hCE1) [nM]
COc1ccc(N(C)C2=CC(=O)C(=O)c3ccccc32)cc1 [Compound 17, 4-((4-Methoxyphenyl)(methyl)amino)naphthalene-1,2-dione]	less than 23%	
Cc1ccc(N(C)C2=CC(=O)C(=O)c3ccccc32)cc1 [Compound 18, 4-((4-Methylphenyl)(methyl)amino)naphthalene-1,2-dione]	less than 23%	
Cc1cccc2c3c(ccc12)C1=C(C(=O)C3=O)[C@@H](C)CO1 [dihydrotanshinone]		398
